Measurements: patent US12599642B2, “Compositions derived from Salvia hispanica seeds” (Signum Biosciences, priority 2020, dated 2026)
Marks after values point to notes of the source that are not given here.

Experiments:
PME-1 = target: T1, PME-1 (Homo sapiens, UniProt Q9Y570); experiment: PP2A demethylation by PME-1, radioactive filter binding assay; assay type: biochemical
T1 construct: made in house
T1 sequence (Q9Y570 1-386): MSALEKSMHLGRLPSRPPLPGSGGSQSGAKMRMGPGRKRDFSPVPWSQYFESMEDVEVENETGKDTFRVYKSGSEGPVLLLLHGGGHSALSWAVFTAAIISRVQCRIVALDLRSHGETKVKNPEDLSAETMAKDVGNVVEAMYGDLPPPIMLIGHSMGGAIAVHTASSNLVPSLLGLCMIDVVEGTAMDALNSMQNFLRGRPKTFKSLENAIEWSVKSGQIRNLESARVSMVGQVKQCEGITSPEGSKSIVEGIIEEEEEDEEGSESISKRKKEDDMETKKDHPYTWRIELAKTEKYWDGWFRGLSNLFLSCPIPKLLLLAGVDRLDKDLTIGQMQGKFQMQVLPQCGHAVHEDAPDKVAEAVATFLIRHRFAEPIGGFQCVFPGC
Method: Compositions were created using the extraction methods as generally described in Example 1. These compositions were assayed for their ability to preserve the methylation status of PP2A AC dimer in the presence of protein phosphatase methylesterase-1 (PME-1), using a radioactive filter binding assay.
PP2A-AC dimer was prepared as previously described in Tolstykh T, Lee J, Vafai S, Stock J B. Carboxyl methylation regulates phosphoprotein phosphatase 2A by controlling the association of regulatory B subunits. EMBO J. 2000; 19(20:5682-5691. Additional purification was performed with a HiPrep™ 16/60 Sephacryl® S100 HR in a buffer composed of 50 mM MOPS pH 7.2, 1.0 mM EDTA, 1.0 mM dithiothreitol (DTT), and 0.50 μg/ml each of aprotinin, leupeptin and pepstatin. Leucine carboxyl methytransferase-1 (LCMT-1) and Protein phosphatase methylesterase-1 (PME-1) were prepared using the methods as previously described Xing Y, Li Z, Chen Y, Stock J B, Jeffrey P D, Shi Y. Structural mechanism of demethylation and inactivation of protein phosphatase 2A. Cell. 2008; 133(I):154-163.
[3H]-labeled methylated PP2A AC dirtier was prepared by incubating PP2A, LCMT1 and [3H]-SAM (PerkinElmer; Waltham, Mass.) in 50 mM MOPS-Na (pH 7.2), 5 mM MgCl2, and 1 mM DTT at room temperature for 1 hour. Demethylation of PP2A by PME-1 was measured using the radioactive filter binding assay format. 20 nM PME-1 was incubated for 15 minutes with extract or compound, then 20 nM of [3H]-labeled methylated PP2A AC dimer was added. Reactions were run at room temperature for 30 minutes and then applied to a 96-well filter plate (Millipore Co.) containing 30% TCA where proteins were precipitated and separated from the excess of [3H]-SAM by washing with 70% ethanol. [3H]-incorporation was measured using TopCount NXT scintillation counter (PerkinEimer; Waltham, MA). IC50 values were generated from dose-response curves using a four-parameter logistic curve fit using SigmaPlot software (Systat Software, San Jose, CA).

[1] = system: Staphylococcus aureus (ATCC® 29213™); experiment: Minimum inhibitory concentration, growth of S. aureus; assay type: cell-based; settings: for MIC Staphylococcus aureus (ATCC ® 29213 ™): 90% inhibition of growth, aerobic, 24 hours, Table 6; for MIC Staphylococcus aureus (ATCC ® 29213): Table 14
Method: (§1) The inhibition of growth of Cutibacterium acnes and Staphylococcus aureus bacteria was measured according to the methods described in Nakatsuji et al., J Invest Dermatol, 2009, 129: 2480-2488; Traub and Leonhard, Chemotherapy, 1994; 40(6):374-383. In summary, the strain ATCC® 6919™ of C. acnes (American Type Culture Collection, Manassas, VA) was cultured on Reinforced Clostridium agar (BD 218081), under anaerobic conditions using Gas-Pak (B D, Sparks, MD) at 37° C. ATCC® 29213™ strain of S. aureus was cultured on tryptic soy agar (BD 211825), under aerobic conditions at 37° C. A single colony was inoculated in broth medium and cultured at 37° C. In addition to various positive controls, both the Final Product and the First Stage Product of the extraction process described in Example 1 were tested as described below. Test material was dissolved in 100% (v/v) DMSO. Doxycycline was dissolved in 100% (v/v) water. Samples of each test material and a solution of doxycycline were then each incubated with an inoculum of bacteria at a concentration of 1×10^6 CFU per mL, in broth medium in a 96-well microplate (0.1 mL per well) under aerobic conditions for 24 hours (S. aureus) or anaerobic conditions for 72 hours (C. acnes). Samples of each material were tested at final concentrations per well up to 4 mg/mL. A control well received only 5% (v/v) of DMSO or water. After 24-72 hours incubation, the bacteria cultures in the 96-well microplate were mixed well and then absorbance readings at 600 nm were taken to determine bacterial growth.

[2] = system: Cutibacterium acnes (ATCC® 6919™); experiment: Minimum inhibitory concentration, growth of C. acnes; assay type: cell-based; settings: for MIC Cutibacterium acnes (ATCC ® 6919 ™): 90% inhibition of growth, anaerobic, 72 hours, Table 6; for MIC Cutibacterium acnes (ATCC ® 6919): Table 14
Method: as §1

[3] = system: human pre-adipocyte cells; experiment: Lipolysis assay, glycerol release; assay type: cell-based; settings: 100 μM, 8 hours
Text: Lipolysis is the process in which triglycerides (TG) are hydrolyzed into glycerol and free fatty acids. This process releases free fatty acids (FFA) into the bloodstream where they may be either re-esterified by the adipocyte or travel to other tissues and exert other effects throughout the body. The purpose of this study was to evaluate the lipolysis via measure of the glycerol molecule released in lipolysis process. Here, we evaluated the potential capacity of the chia seed extract composition of Example 1 in cultured human pre-adipocyte cells. Cells were seeded in medium and incubated for 7 days. Neat solutions of the enriched free acid chia seed extract composition of Example 1 were prepared formulated in methanol. Cells were pre-treated for 8 hours with or without test material in media.
A Lipolysis Assay Kit (Cat. No. Lip-1) was obtained from Zen-Bio, Inc. (Research Triangle, NC) and used to determine glycerol levels (μM) based on the methodology described below. Glycerol released to the medium is phosphorylated by […] (ATP) forming glycerol-1-phosphate (G-1-P) and adenosine-5′-diphosphate (ADP) in the reaction catalyzed by glycerol kinase. G-1-P is then oxidized by glycerol phosphate oxidase to dihydroxyacetone phosphate (DAP) and hydrogen peroxide. […] The increase in absorbance at 540 nm is directly proportional to glycerol concentration of the sample. […]

[4] = Clinical trial, skin moisturization by Corneometer; assay type: in vivo, human; settings: lower leg
Method: A single-blind, single-center clinical trial was conducted with 6 healthy volunteers of either sex to evaluate the moisturization efficacy of a moisturizing cream (formulated as shown below in Table 8) containing the composition prepared using the process of Example 9, vehicle (i.e., the formulation of Table 8 minus the active ingredient-i.e., the chia seed composition), a negative control (untreated), and two positive controls (petroleum jelly and glycerin). The objective of this study was to evaluate the moisturization efficacy (as measured by Corneometer®) and to evaluate the relative degree of improvement to skin barrier functionality of two test articles as measured by Trans Epidermal Water Loss (TEWL) assessments when tested in 16 healthy subjects. See, e.g., Johan du […] et al., International Guidelines for The In Vivo Assessment Of Skin Properties In Noel-Clinical Settings: Part 2. Transepidermal Water Loss and Skin Hydration, Skin Res. Technol. 19(3), 265-278 (2013); C. W. Blichmann and J. Serup, Assessment of Skin Moisture. Measurement of Electrical Conductance: Capacitance and Transepidermal Water Loss, Acta Derm. Venereol. 68(4): 284-290 (1988). On day -3 of the study, subjects were given a bland soap product (e.g., Simple® Soap) to use on their lower legs for the three days prior to the active phase. They were instructed not to use any other treatment products on their lower legs for the next 3 days (the “Washout Phase”). These products included moisturizing foam baths, shower gels or soaps, lotions and creams, and depilatory products. As part of the pre-treatment assessment, subjects sat resting for a period of at least 30 minutes in a controlled environment at a temperature of 22° C.±2° C. and at a relative humidity of 45%±5%. Following the rest period, their lower legs were marked with a total of four 5 cm×5 cm squares. Moisturization measurements to study the humectant properties of the test articles were performed using the Corneometer® CM825 (Courage and Khazaka, Germany). This instrument relies on the dielectric constant, a physical property of water, which is relatively high and as such will affect the capacitance of a capacitor. Any change in the dielectric constant due to skin moisture variations would alter the capacitance of the precision capacitor in the instrument. These variations were detected electronically and converted into a value by the Corneometer®. A 15-minute warm-up period was allowed before using the Corneometer®. Following assessments of skin hydration by a Corneometer®, a single application of the test articles (i.e., the chia seed formulation and vehicle alone) was made to the lower leg. Further Corneometer® assessments were then performed at 2, 8, and 24-hours following test article application. […]

Structure (SMILES) | MIC Staphylococcus aureus (ATCC ® 29213 ™) [1] [μg\mL] | MIC Staphylococcus aureus (ATCC ® 29213) [1] [μg\mL] | MIC Cutibacterium acnes (ATCC ® 6919 ™) [2] [μg\mL] | MIC Cutibacterium acnes (ATCC ® 6919) [2] [μg\mL] | other results
CCCCC/C=C\C/C=C\CCCCCCCC(=O)O [LA, cis,cis-9,12-octadecadienoic acid] | – | – | – | – | [LA] at which 50% PP2A inhibition is achieved (PME-1; regardless of [ALA]): ≥ 1 µg/mL
O=C(OOC(=O)c1ccccc1)c1ccccc1 [Benzoyl peroxide] | 500 | 500 | 500 | 500 | –
C[C@H]1c2cccc(O)c2C(=O)C2=C(O)[C@]3(O)C(=O)C(C(N)=O)=C(O)[C@@H](N(C)C)[C@@H]3[C@@H](O)[C@@H]21 [Doxycycline] | 0.2 | 0.2 | 0.6 | 0.6 | –
CC/C=C\C/C=C\C/C=C\CCCCCCCC(=O)O [ALA, cis,cis,cis-9,12,15-octacedatriencoic acid] | – | – | – | – | [ALA] necessary to obtain 50% PP2A inhibition (PME-1; [LA]=0 μg/mL): > 8 µg/mL; [ALA] necessary to obtain 50% PP2A inhibition (PME-1; [LA]=0.5 μg/mL): > 4 µg/mL
CC(C)Cn1c(=O)n(C)c(=O)c2[nH]cnc21 [IBMX, 3-isobutyl-1-methylxanthine] | – | – | – | – | Glycerol Levels, Avg [3]: 8.8* (p < 0.01 μM; Glycerol Levels, Fold Improvement [3]: 6.4
O=C(O)c1ccccc1O [Salicylic Acid] | 2000 | 2000 | 1000 | 500 | –
OCC(O)CO [Positive Control (glycerine), glycerine] | – | – | – | – | Mean Corneometer ® Values ([4]; 0 hours (before application)): 22.7; Mean Corneometer ® Values ([4]; 2 hours after single application): 127.1; Mean Corneometer ® Values ([4]; 8 hours after single application): 106.8; Mean Corneometer ® Values ([4]; 24 hours after single application): 82.3
